Where two headings read alike, the source gives them in different places.
Experiments:
Format in all cases: biochemical
[1] = target: T1, L-phenylalanine dehydrogenase produced by Bacillus sp. SCRC-R79a (Lysinibacillus sphaericus, UniProt P23307); experiment: Substrate and coenzyme specificity, oxidative deamination (Bacillus enzyme); set-up: inoculated with Bacillus sp; endogenous in cells; host or cells: Bacillus sp; enzyme purified in house; conditions: for activity at 10000 µM: read-out: Relative activity (%)
T1 sequence (P23307 1-381): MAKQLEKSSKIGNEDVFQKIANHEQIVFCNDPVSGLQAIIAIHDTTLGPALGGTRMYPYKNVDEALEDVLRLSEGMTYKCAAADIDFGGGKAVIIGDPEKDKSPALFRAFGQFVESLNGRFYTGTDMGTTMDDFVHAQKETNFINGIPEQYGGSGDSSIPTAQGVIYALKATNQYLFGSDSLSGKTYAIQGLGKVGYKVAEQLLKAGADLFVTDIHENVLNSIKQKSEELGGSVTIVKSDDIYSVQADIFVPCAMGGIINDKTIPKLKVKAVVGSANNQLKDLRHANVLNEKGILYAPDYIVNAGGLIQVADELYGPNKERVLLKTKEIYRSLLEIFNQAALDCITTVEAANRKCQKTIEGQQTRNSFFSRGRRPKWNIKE
Procedure: The substrate concentration is 10 mM except for the L-tyrosine concentration which is 1.4 mM.

[2] = target: T2, L-phenylalanine dehydrogenase produced by Sporosarcina ureae SCRC-R04 (Sporosarcina ureae, UniProt P97014); experiment: Substrate and coenzyme specificity, oxidative deamination (Sporosarcina enzyme); conditions: for action of the enzyme on the amino acid as substrate (in words) / activity at 10000 µM: oxidative deamination; for activity at 10000 µM: substrate concentration 10 mM, L-phenylalanine = 100, read-out: Relative activity (%)
T2 sequence (P97014 1-379): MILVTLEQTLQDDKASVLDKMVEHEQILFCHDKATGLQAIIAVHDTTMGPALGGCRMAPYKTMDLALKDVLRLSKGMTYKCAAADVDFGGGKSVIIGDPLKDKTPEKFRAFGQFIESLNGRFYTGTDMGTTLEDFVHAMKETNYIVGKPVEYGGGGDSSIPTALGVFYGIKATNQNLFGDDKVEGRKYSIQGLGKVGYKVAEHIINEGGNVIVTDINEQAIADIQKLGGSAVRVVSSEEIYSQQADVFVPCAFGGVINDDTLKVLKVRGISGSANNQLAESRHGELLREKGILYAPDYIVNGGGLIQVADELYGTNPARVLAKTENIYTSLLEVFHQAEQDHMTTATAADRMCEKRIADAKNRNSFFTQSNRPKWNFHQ
Procedure: The substrate concentration is 10 mM, except for the L-tyrosine concentration which is 1.4 mM.

[3] = target: T1, L-phenylalanine dehydrogenase produced by Bacillus sp. SCRC-R79a; experiment: Effect of metal ions and inhibitors on enzyme activity (Bacillus enzyme); set-up: inoculated with Bacillus sp; endogenous in cells; host or cells: Bacillus sp; enzyme purified in house
Procedure: Unless otherwise described, the concentration of metal cations and inhibitors is 1 mM.

[4] = target: T2, L-phenylalanine dehydrogenase produced by Sporosarcina ureae SCRC-R04; experiment: biochemical
[5] = oxidative deamination, substrate concentration 10 mM, L-phenylalanine = 100
[6] = 1 mM, not added = 100, read-out: Relative activity

N[C@H](Cc1ccccc1)C(=O)O [D-phenylalanine]
action of the enzyme on the amino acid as substrate (in words) ([1]; oxidative deamination): cannot serve as a substrate
action of the enzyme on the amino acid as substrate (in words) [2]: cannot serve as a substrate

[Al+3] [Al^3+]
Relative activity ([3]; 1 mM, not added = 100): 99%
Relative activity ([4]; 1 mM, not added = 100): 153%

N[C@@H](Cc1ccccc1)C(=O)O [L--Phenylalanine, L-phenylalanine]
action of the enzyme on the amino acid as substrate (in words) ([1]; oxidative deamination): acting strongly
activity at 10000 µM [1, 5]: 100%
action of the enzyme on the amino acid as substrate (in words) [2]: acting strongly
activity at 10000 µM [2]: 100%

NO [Hydroxylamine]
Relative activity ([3]; 10 mM, not added = 100): 90%
Relative activity ([4]; 10 mM, not added = 100): 173%

N[C@@H](CS)C(=O)O [L-cysteine]
action of the enzyme on the amino acid as substrate (in words) ([1]; oxidative deamination): cannot serve as a substrate
action of the enzyme on the amino acid as substrate (in words) [2]: cannot serve as a substrate

CC[C@H](N)C(=O)O [L-α-amino-n-butyric acid]
action of the enzyme on the amino acid as substrate (in words) ([1]; oxidative deamination): cannot serve as a substrate

N[C@@H](CCC(=O)O)C(=O)O [L-glutamic acid]
action of the enzyme on the amino acid as substrate (in words) ([1]; oxidative deamination): cannot serve as a substrate
action of the enzyme on the amino acid as substrate (in words) [2]: cannot serve as a substrate

CCSCC[C@H](N)C(=O)O [L--Ethionine, L-ethionine]
activity at 10000 µM [1]: 3.1%
activity at 10000 µM [2]: 7%

CC(C)C[C@H](N)C(=O)O [L--Leucine, L-leucine]
action of the enzyme on the amino acid as substrate (in words) ([1]; oxidative deamination): cannot serve as a substrate
activity at 10000 µM [2]: 2.3%

[Li+] [Li^+]
Relative activity ([3]; 1 mM, not added = 100): 95%
Relative activity ([4]; 1 mM, not added = 100): 96%

[Mn+2] [Mn^2+]
Relative activity ([3]; 1 mM, not added = 100): 95%
Relative activity ([4]; 1 mM, not added = 100): 129%

N[C@@H](CO)C(=O)O [L-serine]
action of the enzyme on the amino acid as substrate (in words) ([1]; oxidative deamination): cannot serve as a substrate
action of the enzyme on the amino acid as substrate (in words) [2]: cannot serve as a substrate

[Hg+2] [Hg^2+]
effect on enzyme activity (in words) [3]: inhibited
Relative activity ([3]; 0.01 mM, not added = 100): 38%
effect on enzyme activity (in words) [4]: inhibited
Relative activity ([4]; 0.01 mM, not added = 100): 0%

CCN1C(=O)C=CC1=O [N--Ethylmaleimide, N-ethylmaleimide]
activity at 1000 µM [3, 6]: 162%
effect on enzyme activity (in words) [4]: inhibited
activity at 1000 µM [4, 6]: 21%

CCCC[C@H](N)C(=O)O [L--Norleucine, L-norleucine]
activity at 10000 µM [1, 5]: 3.9%
activity at 10000 µM [2]: 15%

N[C@@H](Cc1c[nH]cn1)C(=O)O [L-histidine]
action of the enzyme on the amino acid as substrate (in words) ([1]; oxidative deamination): cannot serve as a substrate
action of the enzyme on the amino acid as substrate (in words) [2]: cannot serve as a substrate

[Cd+2] [Cd^2+]
Relative activity ([3]; 1 mM, not added = 100): 102%
Relative activity ([4]; 1 mM, not added = 100): 70%

CCC[C@H](N)C(=O)O [L--Norvaline, L-norvaline]
activity at 10000 µM [1, 5]: 1.3%
activity at 10000 µM [2]: 6.3%

[Pb+2] [Pb^2+]
Relative activity ([3]; 1 mM, not added = 100): 53%
Relative activity ([4]; 1 mM, not added = 100): 81%

[Ba+2] [Ba^2+]
Relative activity ([3]; 1 mM, not added = 100): 93%
Relative activity ([4]; 1 mM, not added = 100): 106%

NC(=O)C[C@H](N)C(=O)O [L-asparagine]
action of the enzyme on the amino acid as substrate (in words) ([1]; oxidative deamination): cannot serve as a substrate
action of the enzyme on the amino acid as substrate (in words) [2]: cannot serve as a substrate

CC(C)[C@H](N)C(=O)O [L--Valine, L-valine]
action of the enzyme on the amino acid as substrate (in words) ([1]; oxidative deamination): cannot serve as a substrate
activity at 10000 µM [2]: 3.1%

[Sn+2] [Sn^2+]
Relative activity ([3]; 0.5 mM, not added = 100): 110%
Relative activity ([4]; 0.5 mM, not added = 100): 123%

C[C@H](N)C(=O)O [L-alanine]
action of the enzyme on the amino acid as substrate (in words) ([1]; oxidative deamination): cannot serve as a substrate
action of the enzyme on the amino acid as substrate (in words) [2]: cannot serve as a substrate

NC(=O)c1ccc[n+]([C@@H]2O[C@H](COP(=O)([O-])OP(=O)(O)OC[C@H]3O[C@@H](n4cnc5c(N)ncnc54)[C@H](OP(=O)(O)O)[C@@H]3O)[C@@H](O)[C@H]2O)c1 [NADP^+]
activity relative to NAD^+ as coenzyme ([1]; coenzyme): ~2.9%
activity relative to NAD^+ as coenzyme ([2]; coenzyme): about 3.9%
